We go through 13 compounds from patent publication US10793553B2, “TLR7/8 antagonists and uses thereof” (Merck Patent GmbH, priority 2017, dated 2020).

Where a name gives a salt, the structure may show the parent alone.

The target of one assay is T1, TLR8 (Homo sapiens, UniProt Q9NR97).
T1 construct: expressed in transfected cells; host or cells: HEK cells carrying TLR8 and an NFkB luciferase reporter
T1 sequence (Q9NR97 27-1041): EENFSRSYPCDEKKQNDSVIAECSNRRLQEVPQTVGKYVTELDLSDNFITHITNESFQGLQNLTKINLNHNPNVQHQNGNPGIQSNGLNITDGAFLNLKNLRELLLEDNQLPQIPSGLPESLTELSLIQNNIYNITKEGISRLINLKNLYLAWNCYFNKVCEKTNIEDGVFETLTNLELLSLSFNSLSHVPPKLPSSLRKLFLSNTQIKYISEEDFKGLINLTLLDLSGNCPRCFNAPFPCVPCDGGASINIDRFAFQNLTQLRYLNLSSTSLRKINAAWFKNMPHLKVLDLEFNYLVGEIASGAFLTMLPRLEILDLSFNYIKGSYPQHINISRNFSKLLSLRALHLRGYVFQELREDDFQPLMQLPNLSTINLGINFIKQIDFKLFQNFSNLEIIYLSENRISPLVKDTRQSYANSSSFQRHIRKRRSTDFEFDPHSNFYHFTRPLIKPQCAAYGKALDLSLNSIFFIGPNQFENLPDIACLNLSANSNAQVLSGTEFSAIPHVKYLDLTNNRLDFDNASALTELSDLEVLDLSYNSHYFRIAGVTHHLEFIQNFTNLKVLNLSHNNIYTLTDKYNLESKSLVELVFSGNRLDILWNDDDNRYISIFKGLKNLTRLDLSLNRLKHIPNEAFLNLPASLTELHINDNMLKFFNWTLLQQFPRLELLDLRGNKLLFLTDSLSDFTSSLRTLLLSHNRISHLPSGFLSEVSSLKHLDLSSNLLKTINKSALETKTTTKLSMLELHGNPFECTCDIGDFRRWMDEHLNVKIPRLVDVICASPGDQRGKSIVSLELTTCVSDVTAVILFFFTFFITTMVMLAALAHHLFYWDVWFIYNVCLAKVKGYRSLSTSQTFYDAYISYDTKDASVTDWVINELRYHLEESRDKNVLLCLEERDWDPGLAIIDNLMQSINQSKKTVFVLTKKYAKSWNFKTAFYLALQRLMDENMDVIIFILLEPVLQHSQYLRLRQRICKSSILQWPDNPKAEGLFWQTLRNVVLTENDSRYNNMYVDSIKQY
As to the kind of experiment: HEK TLR8 Cell Assay. The format is cell-based. The following applies: TLR8/NFKb HEK cells, R848 agonist 30 uM final, Steady-Glo readout. On the procedure: Example 25: HEK TLR8 Cell Assay
(§1) Into 384 CulturePlates (Corning 3707) was placed 5000 c/w of TLR8/NFKb HEK cells in 30 uL DMEM without Phenol red (gibco #31053) and 10% FCS-HI, 2 mM L-Glutamine, 1% Pen/Strept. The cells are incubated for 24 h at 37 degrees Celsius, and 10% carbon dioxide. Dispense 3 uL of controls, standards, and compounds to wells, incubate for 30 min then add 3 uL of R848 (30 uM final concentration) agonist in 20 mM Hepes. Incubate for 5 hours and then allow to stand at room temperature for 15 min. Add 10 uL of Steady-Glo substrate reagent and shake assay plate for 5 min at 1500 rpm. Let the assay plate sit for 30 min at room temperature and then read plate on EnVision.

Another assay deals with T2, TLR7 (Homo sapiens, UniProt Q9NYK1).
T2 construct: expressed in transfected cells; host or cells: HEK cells carrying TLR7 and an NFkB luciferase reporter
T2 sequence (Q9NYK1 27-1049): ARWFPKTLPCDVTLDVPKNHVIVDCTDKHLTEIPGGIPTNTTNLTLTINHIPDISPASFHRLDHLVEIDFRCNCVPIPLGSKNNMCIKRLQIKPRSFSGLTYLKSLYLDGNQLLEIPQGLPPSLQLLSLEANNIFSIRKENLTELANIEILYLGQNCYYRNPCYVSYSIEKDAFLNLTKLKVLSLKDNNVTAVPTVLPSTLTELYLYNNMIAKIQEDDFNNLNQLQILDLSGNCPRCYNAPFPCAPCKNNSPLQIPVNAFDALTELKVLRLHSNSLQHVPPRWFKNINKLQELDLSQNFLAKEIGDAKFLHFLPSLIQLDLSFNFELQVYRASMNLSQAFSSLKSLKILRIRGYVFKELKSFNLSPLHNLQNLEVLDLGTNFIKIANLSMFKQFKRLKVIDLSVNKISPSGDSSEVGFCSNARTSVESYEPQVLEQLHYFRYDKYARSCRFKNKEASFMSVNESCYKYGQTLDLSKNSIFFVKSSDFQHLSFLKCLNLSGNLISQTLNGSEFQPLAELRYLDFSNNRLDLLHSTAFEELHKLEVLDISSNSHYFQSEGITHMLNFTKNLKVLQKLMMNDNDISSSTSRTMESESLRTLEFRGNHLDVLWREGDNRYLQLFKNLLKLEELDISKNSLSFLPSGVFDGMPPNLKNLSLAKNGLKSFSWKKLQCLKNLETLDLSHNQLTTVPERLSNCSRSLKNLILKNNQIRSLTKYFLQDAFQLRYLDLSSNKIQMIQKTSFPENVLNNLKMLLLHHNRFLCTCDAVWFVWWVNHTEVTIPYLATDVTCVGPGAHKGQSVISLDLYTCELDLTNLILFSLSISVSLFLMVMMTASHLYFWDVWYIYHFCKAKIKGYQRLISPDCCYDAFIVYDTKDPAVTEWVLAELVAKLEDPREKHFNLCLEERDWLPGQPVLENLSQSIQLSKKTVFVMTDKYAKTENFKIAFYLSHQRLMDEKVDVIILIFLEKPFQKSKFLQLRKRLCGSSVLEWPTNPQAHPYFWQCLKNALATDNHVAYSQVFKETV
As to the kind of experiment: HEK TLR7 Cell Assay. The format is cell-based. The following applies: TLR7/NFKb HEK cells, R848 agonist 10 uM final, Steady-Glo readout. The procedure: Example 24: HEK TLR7 Cell Assay
as §1, with “TLR7/NFKb” for “TLR8/NFKb”, “(10” for “(30”

In general, IC50 refers to the concentration needed to halve the response being measured. Take `Cc1ccc(N2C[C@@H](C)[C@@H](NC(=O)CC3CCN(C)CC3)C2)c2cccnc12` [Compound 34, N-[(3R,4R)-4-methyl-1-(8-methylquinolin-5-yl)pyrrolidin-3-yl]-2-(1-methylpiperidin-4-yl)acetamide]: the IC50 at TLR8 and at TLR7 was under 1 µM in each case.

As to `Cc1ccc(N2C[C@@H](C)[C@@H](NC(=O)CN3CCOCC3)C2)c2cccnc12` [Compound 39, N-[(3R,4R)-4-methyl-1-(8-methylquinolin-5-yl)pyrrolidin-3-yl]-2-(morpholin-4-yl)acetamide], the IC50 at TLR8 is over 10 µM; at TLR7, 1 to 10 µM.

Consider `Cc1ccc(N2C[C@@H](C)[C@@H](NC(=O)CC3(C)CCN(C)CC3)C2)c2cccnc12` [Compound 40, 2-(1,4-dimethylpiperidin-4-yl)-N-[(3R,4R)-4-methyl-1-(8-methylquinolin-5-yl)pyrrolidin-3-yl]acetamide], for which the IC50 is 1 to 10 µM at TLR8 and under 1 µM on TLR7.

As to `Cc1ccc(N2C[C@@H](C)[C@@H](NC(=O)CC3(F)CCNCC3)C2)c2cccnc12` [Compound 41, 2-(4-fluoropiperidin-4-yl)-N-[(3R,4R)-4-methyl-1-(8-methylquinolin-5-yl)pyrrolidin-3-yl]acetamide], the IC50 at TLR8 is 1 to 10 µM; at TLR7 it was under 1 µM.

Regarding `Cc1ccc(N2C[C@@H](C)[C@@H](NC(=O)CC3(F)CCN(C)CC3)C2)c2cccnc12` [Compound 42, 2-(4-fluoro-1-methylpiperidin-4-yl)-N-[(3R,4R)-4-methyl-1-(8-methylquinolin-5-yl)pyrrolidin-3-yl]acetamide], the IC50 at TLR8 and on TLR7 was under 1 µM throughout.

As for `Cc1ccc(N2C[C@@H](C)[C@@H](NC(=O)[C@@H](O)C(C)C)C2)c2cccnc12` [Compound 47, (2S)-2-hydroxy-3-methyl-N-[(3R,4R)-4-methyl-1-(8-methylquinolin-5-yl)pyrrolidin-3-yl]butanamide], the IC50 at TLR8 was over 10 µM; on TLR7, 1 to 10 µM.

As to `Cc1ccc(N2C[C@@H](C)[C@@H](NC(=O)[C@H](O)C(C)C)C2)c2cccnc12` [Compound 48, (2R)-2-hydroxy-3-methyl-N-[(3R,4R)-4-methyl-1-(8-methylquinolin-5-yl)pyrrolidin-3-yl]butanamide], the IC50 at TLR8 and at TLR7 was over 10 µM each time.

`Cc1ncc(N2C[C@@H](C)[C@@H](N)C2)c2cccnc12` [Compound 51, (3R,4R)-4-methyl-1-(8-methyl-[1,7]naphthyridin-5-yl)-pyrrolidin-3-ylamine hydrochloride]: the IC50 on TLR8 is over 10 µM; on TLR7 it was 1 to 10 µM.

For `Cc1ncc(N2C[C@@H](C)[C@@H](NC(=O)CC3CCN(C)CC3)C2)c2cccnc12` [Compound 52, N-[(3R,4R)-4-methyl-1-(8-methyl-[1,7]naphthyridin-5-yl)-pyrrolidin-3-yl]-2-(1-methyl-piperidin-4-yl)-acetamide], the IC50 was over 10 µM on TLR8 and under 1 µM at TLR7.

As for `Cc1ncc(N2C[C@@H](C)[C@@H](NC(=O)CC3CN(C)C3)C2)c2cccnc12` [Compound 53, 2-(1-methyl-azetidin-3-yl)-N-[(3R,4R)-4-methyl-1-(8-methyl-[1,7]naphthyridin-5-yl)-pyrrolidin-3-yl]-acetamide], the results for the IC50 at TLR8 and at TLR7 were over 10 µM and 1 to 10 µM, respectively.

As to `CCN(CC)CCNC(=O)C1CCN(c2ccnc3nccnc23)C1` (centres unmarked) [Compound 54, 1-pyrido[2,3-b]pyrazin-8-yl-pyrrolidine-3-carboxylic acid (2-diethylamino-ethyl)-amide], the IC50 on TLR8 and on TLR7 was over 10 µM throughout.

Turning to `Cc1cc2c(N3CCC(CNCCN4CCCCC4)C3)ccnc2n1C` (centres unmarked) [Compound 55, [1-(1,2-Dimethyl-1H-pyrrolo[2,3-b]pyridin-4-yl)-pyrrolidin-3-ylmethyl]-(2-piperidin-1-yl-ethyl)-amine], the IC50 on TLR8 was over 10 µM; at TLR7, 1 to 10 µM.

For `CC1CN(c2ccc(C#N)c3nccnc23)CC1N` (centres unmarked) [Compound 56, 8-(3-Amino-4-methyl-pyrrolidin-1-yl)-quinoxaline-5-carbonitrile hydrochloride], the IC50 at TLR8 and on TLR7 was under 1 µM throughout.
